For data set [1], the system named is Splenocyte. Description: Immunosuppressive activity in BALB/c mouse splenocytes assessed as inhibition of concanavalin A-stimulated T-cell proliferation incubated for 48 hrs by MTT assay. It counts as functional, cell-based. On the technique in general: Tetrazolium assays rely on reduction of a dye to a coloured formazan, in cell work by metabolically active cells.

Data set [2] relates to Splenocyte. The data set is described as follows: Cytotoxicity against BALB/c mouse splenocytes at 50 uM incubated for 48 hrs by MTT assay. It counts as cell-based.
The test system of data set [3] is Splenocyte. Description: Immunosuppressive activity in BALB/c mouse splenocytes assessed as inhibition of LPS-stimulated B-cell proliferation incubated for 48 hrs by MTT assay. It counts as functional, cell-based.
Data set [4] relates to T-cell. Description: Induction of apoptosis in ConA-induced mouse splenic T cells assessed as early apoptotic cells at 15 uM after 48 hrs by Annexin V-FITC/propidium iodide staining based flow cytometry analysis (reference value: 7.1 %). It counts as functional. Background: In flow cytometry, cells or beads pass a laser one at a time.
The subject of data set [5] is T-cell. The data set is described as follows: Induction of apoptosis in ConA-induced mouse splenic T cells assessed as early apoptotic cells at 1 uM after 48 hrs by Annexin V-FITC/propidium iodide staining based flow cytometry analysis (reference value: 7.1 %). It counts as functional.
In data set [6] the test system is T-cell. The data set is described as follows: Induction of apoptosis in ConA-induced mouse splenic T cells assessed as early apoptotic cells at 5 uM after 48 hrs by Annexin V-FITC/propidium iodide staining based flow cytometry analysis (reference value: 7.1 %). It counts as functional.
Data set [7] relates to T-cell. The data set is described as follows: Induction of apoptosis in ConA-induced mouse splenic T cells assessed as late apoptotic cells at 5 uM after 48 hrs by Annexin V-FITC/propidium iodide staining based flow cytometry analysis (reference value: 0.6 %). Type of data set: functional.
In data set [8] the test system is T-cell. The data set is described as follows: Induction of apoptosis in ConA-induced mouse splenic T cells assessed as late apoptotic cells at 15 uM after 48 hrs by Annexin V-FITC/propidium iodide staining based flow cytometry analysis (reference value: 0.6 %). Type of data set: functional.
Data set [9] deals with T-cell. Description: Induction of apoptosis in ConA-induced mouse splenic T cells assessed as late apoptotic cells at 1 uM after 48 hrs by Annexin V-FITC/propidium iodide staining based flow cytometry analysis (reference value: 0.6 %). Type of data set: functional.
The subject of data set [10] is T-cell. The data set is described as follows: Induction of apoptosis in ConA-induced mouse splenic T cells assessed as early apoptotic cells at 20 uM after 48 hrs by Annexin V-FITC/propidium iodide staining based flow cytometry analysis (reference value: 6.9 %). Type of data set: functional.
Data set [11] has as its system T-cell. Description: Induction of apoptosis in ConA-induced mouse splenic T cells assessed as downregulation of JNK phosphorylation after 48 hrs by Western blotting analysis. It counts as functional, cell-based. The conditions noted are these: dose 5-20 µM. In general terms: Immunoblotting shows a protein as a band on a membrane.
In data set [12] the test system is T-cell. The data set is described as follows: Induction of apoptosis in ConA-induced mouse splenic T cells assessed as increase in cleaved caspase 3 protein expression after 48 hrs by Western blotting analysis. It counts as functional, cell-based. The conditions noted are these: dose 5-20 µM.
Data set [13] has as its system T-cell. The data set is described as follows: Induction of apoptosis in ConA-induced mouse splenic T cells assessed as early apoptotic cells at 10 uM after 48 hrs by Annexin V-FITC/propidium iodide staining based flow cytometry analysis (reference value: 6.9 %). Type of data set: functional.
In data set [14] the test system is T-cell. The data set is described as follows: Induction of apoptosis in ConA-induced mouse splenic T cells assessed as increase in cleaved caspase 9 protein expression after 48 hrs by Western blotting analysis. Type of data set: functional, cell-based. The conditions noted are these: dose 5-20 µM.
The test system of data set [15] is T-cell. The data set is described as follows: Induction of apoptosis in ConA-induced mouse splenic T cells assessed as decrease in Bcl-xL protein expression after 48 hrs by Western blotting analysis. To be noted: dose 5-20 µM. Type of data set: functional, cell-based.
The subject of data set [16] is T-cell. Description: Induction of apoptosis in ConA-induced mouse splenic T cells assessed as increase in Bax protein expression after 48 hrs by Western blotting analysis. Type of data set: functional, cell-based. The conditions noted are these: dose 5-20 µM.
In data set [17] the test system is T-cell. The data set is described as follows: Induction of apoptosis in ConA-induced mouse splenic T cells assessed as late apoptotic cells at 10 uM after 48 hrs by Annexin V-FITC/propidium iodide staining based flow cytometry analysis (reference value: 0.4 %). Type of data set: functional.
For data set [18], the system named is T-cell. The data set is described as follows: Induction of apoptosis in ConA-induced mouse splenic T cells assessed as decrease in Mcl-1 protein expression after 48 hrs by Western blotting analysis. It counts as functional, cell-based. The conditions noted are these: dose 5-20 µM.
Data set [19] concerns T-cell. The data set is described as follows: Induction of apoptosis in ConA-induced mouse splenic T cells assessed as increase in cytochrome C protein expression after 48 hrs by Western blotting analysis. Type of data set: functional, cell-based. The conditions noted are these: dose 5-20 µM.
Data set [20] relates to T-cell. Description: Induction of apoptosis in ConA-induced mouse splenic T cells assessed as early apoptotic cells at 5 uM after 48 hrs by Annexin V-FITC/propidium iodide staining based flow cytometry analysis (reference value: 6.9 %). Type of data set: functional.
The test system of data set [21] is T-cell. Description: Induction of apoptosis in ConA-induced mouse splenic T cells assessed as late apoptotic cells at 20 uM after 48 hrs by Annexin V-FITC/propidium iodide staining based flow cytometry analysis (reference value: 0.4 %). It counts as functional.
Data set [22] has as its system T-cell. The data set is described as follows: Induction of apoptosis in ConA-induced mouse splenic T cells assessed as decrease in Bcl-2 protein expression after 48 hrs by Western blotting analysis. To be noted: dose 5-20 µM. It counts as functional, cell-based.
For data set [23], the system named is T-cell. Description: Induction of apoptosis in ConA-induced mouse splenic T cells assessed as late apoptotic cells at 5 uM after 48 hrs by Annexin V-FITC/propidium iodide staining based flow cytometry analysis (reference value: 0.4 %). It counts as functional.

The structures appear in SMILES notation. Bounds are passed on as bounds.

On to `COc1cc(O)c2c(c1)/C=C/CCC(=O)[C@@H](O)CCC[C@H](C)OC2=O`, for which the IC50 in data set [1] and in data set [3] was > 50 µM each time. In [2], the Activity entry is “Non-Toxic”.

Turning to `C[C@H](O)C[C@@H]1CCCCCc2cc(O)cc(O)c2C(=O)O1`, the IC50 in [1] and in data set [3] was > 50 µM each time. Further, in data set [2], the Activity result is “Non-Toxic”.

As to `COc1cc(O)c2c(c1)/C=C/C[C@@H](O)[C@H](O)C(=O)/C=C/C[C@H](C)OC2=O`, the results for the IC50 in [1] and in [3] were 11.4 µM and 6.8 µM, respectively. Also, in data set [2], the Activity result is “Non-Toxic”.

Turning to `COc1cc(O)c2c(c1)/C=C/CCC(=O)[C@H](O)CCC[C@H](C)OC2=O`, the IC50 – broadly, the concentration at which inhibition is half-maximal – in [1] came out at 25.1 µM; in [3], 27.7 µM. Moreover, the Activity result in data set [2] is “Non-Toxic”.

For `COc1cc(O)c2c(c1)/C=C/C[C@@H](O)[C@@H](O)C(=O)CCC[C@H](C)OC2=O`, the IC50 stood at 16.5 µM in data set [1] and 14.6 µM in [3]. The Activity entry in [2] is listed as “Non-Toxic”.

Turning to `COc1cc(O)c2c(c1)/C=C/C[C@@H](O)[C@@H](O)C(=O)/C=C/C[C@H](C)OC2=O`, the values for the IC50 in [1] and in [3] were 15.2 µM and 11.8 µM, respectively. In addition, the Activity entry in [2] is on record as “Non-Toxic”.

Turning to `COc1cc(O)c2c(c1)/C=C/CC[C@H](O)[C@H](O)CCC[C@H](C)OC2=O`, the IC50 in data set [1] and in data set [3] was > 50 µM each time. Besides, in [2], the Activity entry is on record as “Non-Toxic”.

For the compound `COc1cc(O)c2c(c1)/C=C/CC[C@H](O)C(=O)CCC[C@H](C)OC2=O`, the concentration for half-maximal inhibition (IC50) in [1] and in data set [3] was > 50 µM in each case. In addition, in data set [2], the Activity entry was “Non-Toxic”.

With `COc1cc(O)c2c(c1)/C=C/C[C@H](O)[C@@H](O)C(=O)/C=C/C[C@H](C)OC2=O`, the results for the IC50 in data set [1] and in data set [3] were 24.1 µM and 29.1 µM, respectively. For the same compound, in data set [2], the Activity entry is “Non-Toxic”.

For the compound `COc1cc(O)c2c(c1)[C@H]1O[C@@H]1C[C@H](O)[C@H](O)C(=O)CCC[C@H](C)OC2=O`, the IC50 in [1] was found to be 8.1 µM; in [3], 8.5 µM. The Activity entry in data set [2] is “Non-Toxic”.

In the case of `COc1c(C)c2c(c(O)c1C/C=C(\C)CCC(=O)OCCN1CCOCC1)C(=O)OC2` [MYCOPHENOLATE MOFETIL], the IC50 in data set [3] was determined as 0.5 µM.

For `COc1cc(O)c2c(c1)/C=C/C[C@H](O)[C@H](O)C(=O)CCC[C@H](C)OC2=O`, the Activity was 4.6% in data set [4]; 9.1% in data set [5]; “Non-Toxic” in data set [2]; 5.8% in [6]; 32.9% in data set [7]; 59.1% in [8]. Besides, the Activity in data set [9] amounted to 26.5%. Moreover, the IC50 was 7.4 µM in [1] and 6.4 µM in [3].

`COc1cc(O)c2c(c1)/C=C/C[C@H](O)C(=O)CCCC[C@H](C)OC2=O`: the IC50 in data set [1] and in [3] was > 50 µM each time. Besides, in data set [2], the Activity result is “Non-Toxic”.

With `C[C@H](O)CCC[C@@H]1CCCC(=O)Cc2cc(O)cc(O)c2C(=O)O1`, the IC50 in data set [1] and in data set [3] was > 50 µM each time. The Activity entry in data set [2] was “Non-Toxic”.

On to `COc1cc(O)c2c(c1)/C=C/C[C@H](O)[C@H](O)C(=O)/C=C/C[C@H](C)OC2=O`, for which the IC50 in [1] is 6 µM; in data set [3], 6.2 µM. The Activity entry in data set [2] is “Non-Toxic”.

Consider `C[C@H]1C/C=C/[C@@H](O)[C@@H](O)CC/C=C/c2cc(O)cc(O)c2C(=O)O1` [AIGIALOMYCIN D], for which the IC50 in data set [1] is 16.3 µM; in data set [3], 18.4 µM. In addition, in [2], the Activity result was “Non-Toxic”.

Turning to `COc1cc(O)c2c(c1)/C=C/C[C@H](O)[C@@H](O)C(=O)CCC[C@H](C)OC2=O`, the IC50 in data set [1] and in [3] was > 50 µM in each case. In data set [2], the Activity result was “Non-Toxic”.

Regarding `C[C@H](O)C/C=C/[C@@H]1CCCC(=O)Cc2cc(O)cc(O)c2C(=O)O1`, the Activity in [10] was 8.9%; in data set [11], “Dose-Dependent Effect”; in data set [12], “Dose-Dependent Effect”; in data set [13], 11%; in [14] it was “Dose-Dependent Effect”; in data set [15], “Dose-Dependent Effect”. Besides, the Activity entry in data set [16] was “Dose-Dependent Effect”; in data set [17] it was 37.2%; in [2], “Non-Toxic”; in data set [18] it was “Dose-Dependent Effect”; in data set [19] it was “Dose-Dependent Effect”; in data set [20], 12.1%. Besides, the Activity was 55.8% in data set [21], “Dose-Dependent Effect” in data set [22] and 26.2% in data set [23]. For the same compound, the figures for the IC50 in [1] and in data set [3] were 10.6 µM and 10.3 µM, respectively.

For `COc1cc(O)c2c(c1)/C=C/C[C@H](O)[C@@H](O)[C@@H](O)CCC[C@H](C)OC2=O`, the IC50 in data set [1] and in [3] was > 50 µM in each case. The Activity entry in data set [2] was “Non-Toxic”.

`COc1cc(O)c2c(c1)/C=C/C[C@H](O)[C@H](O)C(=O)C[C@H](O)C[C@H](C)OC2=O`: the IC50 in [1] was found to be 18.8 µM; in [3], 21.9 µM. In addition, in data set [2], the Activity result is on record as “Non-Toxic”.

These data come from ChEMBL document CHEMBL4813949, “Hypothemycin-Type Resorcylic Acid Lactones with Immunosuppressive Activities from a Podospora sp” (J Nat Prod, 2021).
